Source: US7053052B2, “Therapies involving mutated heat shock transcription factor” (priority 1997, dated 2006)

Key:
[1] = system: HeLa-CAT cells; assay: Rates of protein and DNA synthesis in HSF1(+)-expressing cells (3H-leucine, 3H-thymidine incorporation); assay type: cell-based, human; settings: day 2
Experimental: CAT assays were performed using the chromatographic assay of Gorman, C. M. et al., Mol. Cell. Biol., 2:1044–1051 (1982)). DNA replication was assessed by a standard ^3H-thymidine incorporation assay. In most experiments, including all western blot assays, standardization was based on protein content. All protein determinations were made using the Bradford method. In a few experiments involving sorted cells, standardization was based on cell numbers. All experiments were repeated at least twice, and, in most cases, each data point was derived from assays of 3–5 parallel samples.
Protein synthesis dropped to about 10% of the normal rate during heat shock but, after a 1 hour recovery period, returned to pre-shock level in HSF1(+)-expressing but not control cells. […] Fluorescence-activated cell sorting and analyses of DNA content were performed on a FACStar Plus machine (Becton-Dickinson, San Jose, Calif.) configured as described elsewhere (Parks, D. R. et al., In: The Handbook of Experimental Immunology, 4th Edition. Vol. 29. pp. 1–29, 1986). Excitation wave length was 488 nm, and detection lengths were 650 nm (long pass) for propidium iodide and 520 nm (narrow band) for fluorescence by GFP. Extracts from sorted cells were analyzed by western blot. mutHSF was detected in cells sorted as positive for GFP, but not in cells sorted as negative compare. […]

[2] = system: HeLa-CAT cells; assay: Cell survival after heat shock, count of β-galactosidase-positive cells; assay type: cell-based, human; settings: heat shock 48° C./10 minutes; p<0.05
Experimental: To also assess the effect of expression of HSF1(−) on stress-induced cell killing, cultures were transfected with a beta-galactosidase gene or co-transfected with the beta-galactosidase gene and the HSF1(−) construct.
Transfected cultures were subjected to a severe heat shock (48° C./10 minutes; about 75% cell survival) or left untreated, and β-galactosidase-positive cells were counted the following day. Untreated, singly and doubly transfected cultures contained similar number of β-galactosidase-expressing cells. In the heat-shocked cultures, the presence of HSF1(−) increased cell killing by about 60% (p<0.05). Thus, the increase in Hsp levels occurring as a consequence of a stressful event has a significant, immediate protective effect.

Substance | reduction of DNA replication (3H-thymidine incorporation) compared to control cells [1] | increase in cell killing [2]
human HSF1d202–316 [HSF1(+)] | 4–5 fold | 
human HSF1d453–523 [HSF1(−)] |  | about 60%
